Data published in US7105547B2, “Antimicrobial 1-aryl dihydropyridone compounds” (Pharmacia and Upjohn Company, priority 2002, dated 2006).
≈ marks a conversion by molar mass, not a printed value. Like-named read-outs stand apart in the source and are kept apart here.

Tests used:
HINF 30063 = test: MIC by agar dilution against HINF 30063; assay type: cell-based, H. influenzae; conditions: Haemophilus influenzae, read-out: HINF 30063 MIC (Minimum Inhibitory Concentration)
From the text: (§1) Compounds of this invention have useful activity against a variety of organisms. The in vitro activity of compounds of this invention can be assessed by standard testing procedures such as the determination of minimum inhibitory concentration (MIC) by agar dilution as described in “Approved Standard. Methods for Dilution Antimicrobial Susceptibility Tests for Bacteria That Grow Aerobically”, 3rd. ed., published 1993 by the National Committee for Clinical Laboratory Standards, Villanova, Pa., USA.

SPNE 9912 = test: MIC by agar dilution against SPNE 9912; assay type: cell-based; conditions: Streptococcus pneumoniae, read-out: SPNE 9912 MIC (Minimum Inhibitory Concentration)
From the text: as §1

[1] = tested on: Staphylococcus aureus UC9213 (SAUR 9213); test: MIC by agar dilution against Staphylococcus aureus UC9213; assay type: cell-based; conditions: read-out: SAUR 9213 MIC (Minimum Inhibitory Concentration)
From the text: as §1

Row | SMILES | MIC (HINF 30063; HINF 30063, agar dilution) [µg/mL] | MIC (SPNE 9912) [µg/mL] | MIC [1] [µg/mL] | MIC (HINF 30063) [µg/mL]
1 | CC(=O)NC[C@H]1CN(c2ccc(N3C=CC(=O)CC3)c(F)c2)C(=O)O1 [Example 1, N-{3-[3-fluoro-4-(4-oxo-3,4-dihydro-2H-pyridin-1-yl)-phenyl]-2-oxo-oxazolidin-5-ylmethyl}-acetamide] | 4 (≈ 11.5 µM) | 0.25 (≈ 0.72 µM) | 2 (≈ 5.76 µM) | –
2 | CC(=O)NC[C@H]1CN(c2cc(F)c(N3C=CC(=O)CC3)c(F)c2)C(=O)O1 [Example 2, N-{3-[3,5-diluoro-4-(4-oxo-3,4-dihydro-2H-pyridin-1-yl)-phenyl]-2-oxo-oxazolidin-5-ylmethyl}-acetamide] | 8 (≈ 21.9 µM) | 0.5 (≈ 1.37 µM) | 1 (≈ 2.74 µM) | –
3 | O=C1C=CN(c2ccc(N3C[C@H](CNC(=O)C(F)F)OC3=O)cc2F)CC1 [Example 3, N-{3-[3-fluoro-4-(4-oxo-3,4-dihydro-2H-pyridin-1-yl)-phenyl]-2-oxo-oxazolidin-5-ylmethyl}-difluoroacetamide] | – | 0.25 (≈ 0.652 µM) | 1 (≈ 2.61 µM) | 2 (≈ 5.22 µM)
4 | CCC(=O)NC[C@H]1CN(c2ccc(N3C=CC(=O)CC3)c(F)c2)C(=O)O1 [Example 4, N-{3-[3-fluoro-4-(4-oxo-3,4-dihydro-2H-pyridin-1-yl)-phenyl]-2-oxo-oxazolidin-5-ylmethyl}-propionamide] | 2 (≈ 5.53 µM) | 0.5 (≈ 1.38 µM) | 1 (≈ 2.77 µM) | –
5 | O=C1C=CN(c2ccc(N3C[C@H](CNC(=O)C(Cl)Cl)OC3=O)cc2F)CC1 [Example 5, 2,2-dichloro-N-{3-[3-fluoro-4-(4-oxo-3,4-dihydro-2H-pyridin-1-yl)-phenyl]-2-oxo-oxazolidin-5-ylmethyl}-acetamide] | 1 (≈ 2.4 µM) | 0.25 (≈ 0.601 µM) | 1 (≈ 2.4 µM) | –
6 | O=C1C=CN(c2ccc(N3C[C@H](CNC(=S)C(F)F)OC3=O)cc2F)CC1 [Example 6, 2,2-difluoro-N-{3-[3-fluoro-4-(4-oxo-3,4-dihydro-2H-pyridin-1-yl)-phenyl]-2-oxo-oxazolidin-5-ylmethyl}-thioacetamide] | 4 (≈ 10 µM) | 0.125 (≈ 0.313 µM) | 1 (≈ 2.5 µM) | –
7 | COC(=O)NC[C@H]1CN(c2ccc(N3C=CC(=O)CC3)c(F)c2)C(=O)O1 [Example 7, {3-[3-fluoro-4-(4-oxo-3,4-dihydro-2H-pyridin-1-yl)-phenyl]-2-oxo-oxazolidin-5-ylmethyl}-carbamic Acid Methyl Ester] | 8 (≈ 22 µM) | 0.5 (≈ 1.38 µM) | 2 (≈ 5.5 µM) | –
8 | O=C1C=CN(c2ccc(N3C[C@H](CNC(=O)C(Cl)Cl)OC3=O)cc2)CC1 [Example 8, 2,2-dichloro-N-{2-oxo-3-[4-(4-oxo-3,4-dihydro-2H-pyridin-1-yl)-phenyl]-oxazolidin-5-ylmethyl}-acetamide] | 2 (≈ 5.02 µM) | 0.25 (≈ 0.628 µM) | 2 (≈ 5.02 µM) | –
9 | CC(=O)NC[C@H]1CN(c2ccc(N3C=CC(=O)CC3)cc2)C(=O)O1 [Example 9, N-{2-oxo-3-[4-(4-oxo-3,4-dihydro-2H-pyridin-1-yl)-phenyl]-oxazolidin-5-ylmethyl}-acetamide] | 4 (≈ 12.1 µM) | 0.5 (≈ 1.52 µM) | 2 (≈ 6.07 µM) | –
10 | O=C1C=CN(c2ccc(N3C[C@H](CNC(=S)C(F)F)OC3=O)cc2)CC1 [Example 10, 2,2-difluoro-N-{2-oxo-3-[4-(4-oxo-3,4-dihydro-2H-pyridin-1-yl)-phenyl]-oxazolidin-5-ylmethyl}-thioacetamide] | 4 (≈ 10.5 µM) | 0.25 (≈ 0.655 µM) | 1 (≈ 2.62 µM) | –
11 | O=C1C=CN(c2ccc(N3C[C@H](CNC(=O)C(F)F)OC3=O)cc2)CC1 [Example 11, 2,2-difluoro-N-{2-oxo-3-[4-(4-oxo-3,4-dihydro-2H-pyridin-1-yl)-phenyl]-oxazolidin-5-ylmethyl}-acetamide] | 4 (≈ 10.9 µM) | 0.5 (≈ 1.37 µM) | 2 (≈ 5.47 µM) | –
12 | CCC(=O)NC[C@H]1CN(c2ccc(N3C=CC(=O)CC3)cc2)C(=O)O1 [Example 12, N-{2-oxo-3-[4-(4-oxo-3,4-dihydro-2H-pyridin-1-yl)-phenyl]-oxazolidin-5-ylmethyl}-propionamide] | 4 (≈ 11.6 µM) | 0.5 (≈ 1.46 µM) | 4 (≈ 11.6 µM) | –
13 | O=C1C=CN(c2c(F)cc(N3C[C@H](CNC(=O)C(F)F)OC3=O)cc2F)CC1 [Example 13, N-{3-[3,5-difluoro-4-(4-oxo-3,4-dihydro-2H-pyridin-1-yl)-phenyl]-2-oxo-oxazolidin-5-ylmethyl}-2,2-difluoro-acetamide] | 8 (≈ 19.9 µM) | 0.25 (≈ 0.623 µM) | 2 (≈ 4.98 µM) | –
14 | O=C1C=CN(c2c(F)cc(N3C[C@H](CNC(=S)C(F)F)OC3=O)cc2F)CC1 [Example 14, N-{3-[3,5-difluoro-4-(4-oxo-3,4-dihydro-2H-pyridin-1-yl)-phenyl]-2-oxo-oxazolidin-5-ylmethyl}-2,2-difluoro-thioacetamide] | 8 (≈ 19.2 µM) | 0.25 (≈ 0.599 µM) | 0.5 (≈ 1.2 µM) | –
15 | O=C1C=CN(c2c(F)cc(N3C[C@H](CNC(=O)C(Cl)Cl)OC3=O)cc2F)CC1 [Example 15, 2,2-dichloro-N-{3-[3,5-difluoro-4-(4-oxo-3,4-dihydro-2H-pyridin-1-yl)-phenyl]-2-oxo-oxazolidin-5-ylmethyl}-acetamide] | 4 (≈ 9.21 µM) | 0.25 (≈ 0.576 µM) | 2 (≈ 4.61 µM) | –
16 | O=C1C=CN(c2ccc(N3C[C@H](Cn4ccnn4)OC3=O)cc2F)CC1 [Example 16, 1-{2-fluoro-4-[(5R)-2-oxo-5-(1H-1,2,3-triazol-1-ylmethyl)-1,3-oxazolidin-3-yl]phenyl}-2,3-dihydropyridin-4(1H)-one] | 8 (≈ 22.4 µM) | 0.25 (≈ 0.7 µM) | 1 (≈ 2.8 µM) | –
17 | O=C1C=CN(c2ccc(N3C[C@H](Cn4ccnn4)OC3=O)cc2)CC1 [Example 17, 1-{4-[(5R)-2-oxo-5-(1H-1,2,3-triazol-1-ylmethyl)-1,3-oxazolidin-3-yl]phenyl}-2,3-dihydropyridin-4(1H)-one] | 8 (≈ 23.6 µM) | 1 (≈ 2.95 µM) | 1 (≈ 2.95 µM) | –
